Reference: US8129410B2, “Benzisoxazole piperidine compounds and methods of use thereof” (Hypnion, Inc., priority 2005, dated 2012)

Tested on: adult, male Wistar rats
Experiment: Sleep-wakefulness monitoring (SCORE-2004, EEG/EMG) in rats after oral dosing at CT-18
Assay type: in vivo, rat
Details: for LONGEST UNINTERRUPTED SLEEP BOUT: bout length defined in minutes; for MAXIMUM NREM SLEEP CUMULATION: cumulative nonREM defined in minutes, in min
Experimental: Sleep-wakefulness, locomotor activity and body temperature are monitored in male Wistar rats treated with a test compound (i.e., benzisoxazole analog) initially at a concentration of 10 mg/kg. Higher and lower doses are assayed for select compounds (e.g., as high as 45 mg/kg, and as low as necessary to establish a no-effect dose). Treatments are administered at CT-18, the peak of the activity dominated period (6 hours after lights-off), and produced soporific (sleep-inducing) effects characterized by increased non-REM sleep time, increased sleep continuity, but without evidence of REM sleep inhibition or rebound insomnia.
Sleep-wakefulness, locomotor activity and body temperature were monitored in vivo with various compounds of the invention. Adult, male Wistar rats (250 g at time of surgery, Charles River Laboratories, Wilmington Mass.) were anesthetized (2% isoflourane in medical grade oxygen) and surgically prepared with a cranial implant to permit chronic electro-encephalogram (EEG) and electromyogram (EMG) recording. Body temperature and locomotor activity were monitored via a miniature transmitter (Mini-Mitter, Bend, Oreg.) surgically placed in the abdomen. The cranial implant consisted of stainless steel screws (two frontal [+3.2 AP from bregma, ±2.0 ML] and two occipital [−6.9 AP, ±5.5 ML]) for EEG recording. Two Teflon®-coated stainless steel wires were positioned under the nuchal trapezoid muscles for EMG recording. All leads were soldered to a miniature connector prior to surgery, and gas sterilized in ethylene oxide. The implant assembly was affixed to the skull with dental acrylic. A minimum of three weeks was allowed for surgical recovery.
Each rat was permanently housed in its own individual recording cage located within separate, ventilated compartments of custom-designed stainless steel cabinets. Each cage was enhanced with a filter-top riser and low-torque swivel-commutator. Food and water were available ad libitum. A 24-hr light-dark cycle (12 hours light, 12 hours dark) was maintained throughout the study. Animals were undisturbed for at least 48 hours before and after treatments.
Sleep and wakefulness were determined using “SCORE-2004™” (Hypnion, Worcester, Mass.)—an internet-based sleep-wake and physiological monitoring system. The system monitored amplified EEG (bandpass 1-30 Hz), integrated EMG (bandpass 10-100 Hz), body temperature and non-specific locomotor activity (LMA) via telemetry, and drinking activity, continuously and simultaneously. Arousal states were classified on-line as non-REM (NREM) sleep, REM sleep, wake, or theta-dominated wake every 10 seconds. Total drinking and locomotor activity counts, and body temperature were quantitiated and recorded each minute, using EEG feature extraction and pattern-matching algorithms. […] The classification algorithm used individually-taught EEG-arousal-state templates, plus EMG criteria to differentiate REM sleep from theta-dominated wakefulness, plus behavior-dependent contextual rules (e.g., if the animal was drinking, it is awake). Drinking and locomotor activity intensity (LMA) were recorded every 10 seconds, while body temperature was recorded each minute. Locomotor activity was detected by a telemetry receiver (Mini-Mitter) beneath the cage. Telemetry measures (LMA and body temperature) were not part of the scoring algorithm; thus, sleep-scoring and telemetry data were independent measures.
Compounds were administered at CT-18, the peak of the activity-dominated period, sufficient time was allowed to view the time course of the treatment effect before lights-on (6 hours post-treatment). Compounds were suspended in sterile 0.25% or 0.5% methylcellulose (1-2 ml/kg). Treatments were administered orally as a bolus.
A parallel group study design was employed. […]

## CC(C)(CN1CCC(c2noc3ccccc23)CC1)C(=O)O [Compound 1]
0.3 mg/kg oral
  LONGEST UNINTERRUPTED SLEEP BOUT: 3.3 ± 1.8
  MAXIMUM NREM SLEEP CUMULATION: 13 ± 4
1 mg/kg oral
  LONGEST UNINTERRUPTED SLEEP BOUT: 17.2 ± 4.8
  MAXIMUM NREM SLEEP CUMULATION: 23 ± 6
3 mg/kg oral
  LONGEST UNINTERRUPTED SLEEP BOUT: 16.1 ± 2.3
  MAXIMUM NREM SLEEP CUMULATION: 21 ± 6
10 mg/kg oral
  LONGEST UNINTERRUPTED SLEEP BOUT: 15.2 ± 3.3
  MAXIMUM NREM SLEEP CUMULATION: 28 ± 5
